Assay results published in patent US7504537B2, “Hydroxamic acid derivative and MMP inhibitor containing the same as active ingredient” (Dainippon Sumitomo Pharma Co., Ltd., priority 2001, dated 2009).

What was measured:
Type in all cases: biochemical
[1] = biological target: T1, MMP-3 (Homo sapiens, UniProt P08254); assay: Test 1 Test on MMP-3 inhibiting activity (fluorogenic peptide substrate); details: activated MMP-3, 37° C.; read-out: MMP-3 inhibition activity value
T1 construct: C-terminal truncated cDNA in which the cDNA encodes human prostromelysin; made in house; host or cells: E. coli
T1 sequence (P08254 100-272 limits assumed): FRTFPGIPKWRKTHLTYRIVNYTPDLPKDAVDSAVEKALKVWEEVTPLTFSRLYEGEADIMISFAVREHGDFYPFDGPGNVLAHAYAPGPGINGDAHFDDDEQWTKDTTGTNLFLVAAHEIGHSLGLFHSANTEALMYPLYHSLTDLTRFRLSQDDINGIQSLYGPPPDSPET
Experimental: Test 1 Test on MMP-3 Inhibiting Activity
C-terminal truncated cDNA in which the cDNA encodes human prostromelysin, was subcloned (proMMP-3, cDNA sequence in Nature, 348, 699-704 (1990)), was expressed in E. coli and then, the expressed protein was purified in accordance with the method described in Biochemistry 30, 6476-6483 (1991). proMMP-3 activation was carried out by treating with 1 mM 4-aminophenyl mercuric acetate for 60 minutes at 37° C.
Enzyme activity test was conducted by the method of C. G. Knight (FEBS Lett., 296(3), 263-266 (1992)).
A mixture of activated MMP-3 (20 nM, 10 μl), buffer solution (70 μl, pH 7.5 solution containing 100 mM Tris-HCl solution, 10 mM calcium chloride solution, 100 mM sodium chloride solution and 0.05% Brij-35 solution), MOCAc-Pro-Leu-Gly-Leu-A2pr(DNP)-Ala-Arg-NH2 in 0.1% DMSO solution (100 μM, 10 μl) and a test compound in DMSO solution was incubated for 1.5 hours at 37° C. The mixture was put on a 96 well-plate (100 μl/well) and the plate was cultured at 37° C. The enzyme activity in the presence of the compound was measured based on fluorescence intensity (λex 320 nm, λem 405 nm), and IC50 was calculated.

[2] = biological target: T2, MMP-14 (MT1-MMP) (Homo sapiens, UniProt P50281); assay: Test 5 MMP-14 (MT1-MMP) inhibiting activity test; details: human recombinant MT1-MMP, 37° C.; read-out: MMP-14 inhibition activity value
T2 construct: purchased Biogenesis, supplied by Cosmobio (Nakarai Tesku)
Experimental: Test 5 MMP-14 (MTI-MMP) Inhibiting Activity Test
Human recombinant MTI-MMP used the product prepared by Biogenesis and supplied by Cosmobio (Nakarai Tesku).
An assay buffer solution (70 μl, pH 7.5 solution containing 0.1M Tris-HCl solution, 0.1M calcium chloride solution, 10 mM sodium chloride solution and 0.05% Brij-35 solution), 0.1 w/w % a compound in DMSO (10 μl), MMP substrate solution (MOCAc-Pro-Leu-Gly-Leu-A2pr(DNP)-Ala-Arg-NH2 (Peptide Lab.) diluted with the assay buffer solution (50 μM, 10 μl)) and human recombinant MT1-MMP (0.4 pg/10 μl/well) were well agitated under stirring. The enzyme activity of the mixture was measured based on fluorescence intensity (λex 320 nm/λem 405 nm) by a fluorescence reader. After the mixture was incubated at 37° C. for 0.5 hour, the fluorescence intensity (λex 320 nm/λem 405 nm) was measured every hour, and IC50 was calculated.
The inhibition value was calculated by withdrawing average value of blank well from fluorescence mean value of well in which MT1-MMP was added. As the blank was used the mixed solution prepared by adding assay buffer (10 μl) instead of MT1-MMP solution.

[3] = biological target: MMP-9 (Homo sapiens, UniProt P14780); assay: Test 4 MMP-9 inhibiting activity test (biotin labeled gelatin); details: activated human MMP-9, biotin labeled gelatin; read-out: MMP-9 inhibition activity value
Sequence of MMP-9 (P14780 107-707 limits assumed): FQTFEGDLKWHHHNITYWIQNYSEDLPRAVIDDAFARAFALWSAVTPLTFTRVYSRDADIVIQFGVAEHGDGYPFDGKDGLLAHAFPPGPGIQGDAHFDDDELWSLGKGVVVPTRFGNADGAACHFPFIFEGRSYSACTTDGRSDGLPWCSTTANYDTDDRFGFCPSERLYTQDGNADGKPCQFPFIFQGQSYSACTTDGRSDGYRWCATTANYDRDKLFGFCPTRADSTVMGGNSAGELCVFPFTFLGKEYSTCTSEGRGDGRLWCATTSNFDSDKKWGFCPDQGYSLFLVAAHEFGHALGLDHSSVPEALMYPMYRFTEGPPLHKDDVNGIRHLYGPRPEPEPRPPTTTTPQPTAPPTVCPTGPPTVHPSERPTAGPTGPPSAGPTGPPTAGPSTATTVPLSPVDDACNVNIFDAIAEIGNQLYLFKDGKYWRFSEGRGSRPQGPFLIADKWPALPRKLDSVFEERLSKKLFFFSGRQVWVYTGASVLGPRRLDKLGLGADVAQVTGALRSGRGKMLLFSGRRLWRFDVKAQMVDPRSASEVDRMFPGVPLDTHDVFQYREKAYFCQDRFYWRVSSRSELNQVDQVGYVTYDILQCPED
Experimental: Test 4 MMP-9 Inhibiting Activity Test
A mixture of buffer solution (190 μl; pH 7.5 solution containing 50 mM Tris-HCl solution, 0.5 m sodium chloride solution and 5 mM calcium chloride solution), human MMP-9 (10 μl) and trypsin solution (20 μl; trypsin 3 mg in activated buffer (5 ml)) was incubated at 37° C. for 10 minutes. Thereto was added aprotinine solution (20 μl; aprotinine (3 mg) in buffer (5 ml)) and the mixture was incubated at 37° C. for 10 minutes, followed by addition of buffer (2 ml). The mixture was preserved under cooling with ice until use.
A mixture of DMSO solution (2 μl) containing definite concentration of the compound, biotin labeled gelatin (188 μl) and activated MMP-9 solution (10 μl) was put on a 96 well-assay plate (protein nonabsorbance type), well agitated, and incubated at 37° C. for 1 hour. This solution was transferred to Streptavidin-coating plate, and agitated at 15° C. to 30° C. for 30 minutes. And then the solution was washed with TTC buffer solution (200 μl) three times. Thereto was added Streptavidin-POD (200 μl) and the mixture was agitated at 15° C. to 25° C. for 60 minutes, followed by washing with TTC buffer (200 μl) three times. Then, ABTS solution (200 μl) was added thereto and after standing at room temperature for 40 minutes, furuorescence intensity was measured at 405 nm and IC50 was calculated.
In case of the above test, DMSO (2 μl) was used as a control instead of a sample solution. In the case of a blank, DMSO (2 μl) instead of the sample solution and the solution (10 μl) prepared in the same manner as preparation of […] but without adding 1.2 Uhuman MMP-9, instead of activated MMP-9 solution (10 μl), were used.

[4] = biological target: T3, MMP-1 (Homo sapiens, UniProt P03956); assay: Test 6 MMP-1 inhibition activity test; details: MMP-1 from human rheumatic synovium fibroblast, activated with AMPA
T3 construct: calbiochem cat; purchased calbiochem 444208; host or cells: human rheumatic synovium fibroblast
T3 sequence (P03956 100-469): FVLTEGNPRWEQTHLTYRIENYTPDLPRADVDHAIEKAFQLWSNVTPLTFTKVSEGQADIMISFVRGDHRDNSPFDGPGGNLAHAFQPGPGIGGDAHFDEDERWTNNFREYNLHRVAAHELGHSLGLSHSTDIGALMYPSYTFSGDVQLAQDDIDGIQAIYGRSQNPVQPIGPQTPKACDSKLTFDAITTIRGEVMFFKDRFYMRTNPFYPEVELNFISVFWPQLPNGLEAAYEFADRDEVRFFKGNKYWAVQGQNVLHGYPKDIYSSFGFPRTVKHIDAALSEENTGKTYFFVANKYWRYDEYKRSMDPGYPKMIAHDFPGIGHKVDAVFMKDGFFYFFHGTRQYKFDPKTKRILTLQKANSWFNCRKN
Experimental: Test 6 MMP-1 Inhibition Activity Test
MMP-1 (stroma collagenase: EC3.4.24.7, human rheumatic synovium fibroblast, calbiochem cat. 444208) was activated with AMPA at 37° C. for 60 minutes. A test compound was preincubated with activated MMP-1 at 37° C. for 60 minutes in the reaction mixture containing 50 mM MOPS (pH 7.2), 10 mM aqueous calcium chloride solution, and 10 μM zinc chloride. Thereto was added 25 μM Mca-Pro-Leu-Dpa-Ala-Arg-NH2, and the mixture was incubated at 37° C. for 120 minutes. The enzyme activity was measured by fluorescence intensity of Mca-Pro-Leu-Gly, and IC50 was calculated.

Compound | IC50 [1] [nM] | IC50 [2] [nM] | IC50 [3] [nM] | IC50 [4] [nM]
CC(C)CN(C1(C(=O)NO)CCCC1)S(=O)(=O)c1ccc(Oc2ccc(S(C)(=O)=O)cc2)cc1 [Example 2, N-hydroxy 1-[isobutyl({4-[4-(methylsulfonyl)phenoxy]phenyl}sulfonyl)amino]cyclopentanecarboxamide] | 21.2 | 3800 | 300 | 7210
CC(C)OCCN(CC(=O)NO)S(=O)(=O)c1ccc(Oc2ccc(S(C)(=O)=O)cc2)cc1 [Example 3, N^1-hydroxy-N^2-(2-isopropoxyethyl)-N^2-({4-[4-(methylsulfonyl)phenoxy]phenyl}sulfonyl)glycinamide] | 4.8 | 172 | 1000 | –
CC(C)(C(=O)NO)N(Cc1ccccc1)S(=O)(=O)c1ccc(Oc2ccc(S(C)(=O)=O)cc2)cc1 [Example 10, N′^2′-Benzyl-N′^1′-hydroxy-2-methyl-N′^2′-({4-[4-(methylsulfonyl)phenoxy]phenyl}sulfonyl)alaninamide] | 85.8 | > 5000 | 6800 | –
CS(=O)(=O)c1ccc(Oc2ccc(S(=O)(=O)N(Cc3ccccc3)C3(C(=O)NO)CCOCC3)cc2)cc1 [Example 12, 4-[Benzyl({4-[4-(methylsulfonyl)phenoxy]phenyl}sulfonyl)amino]-N-hydroxytetrahydoro-2H-pyrane-4-carboxamide] | 16 | 893 | < 100 | > 10000
CS(=O)(=O)c1ccc(Oc2ccc(S(=O)(=O)NCC(=O)NO)cc2)cc1 [Example 13, N′^1′-Hydroxy-N′^2′-({4-[4-(methylsulfonyl)phenoxy]phenyl}sulfonyl)glycinamide] | 13.5 | > 5000 | 4700 | > 10000
CC(C)CN(C1(C(=O)NO)CCOCC1)S(=O)(=O)c1ccc(Oc2ccc(S(C)(=O)=O)cc2)cc1 [Example 15, N-Hydroxy-4-[isobutyl({4-[4-(methylsulfonyl)phenoxy]phenyl}sulfonyl)amino]tetrahydro-2H-pyrane-4-carboxamide] | 5.2 | > 5000 | 700 | –
CC(C)CN(C1(C(=O)NO)CCC1)S(=O)(=O)c1ccc(Oc2ccc(S(C)(=O)=O)cc2)cc1 [Example 18, N-Hydroxy-1-[isobutyl({4-[4-(methylsulfonyl)phenoxy]phenyl}sulfonyl)amino]cyclobutanecarboxamide] | 29.9 | 799 | 500 | 3300
CS(=O)(=O)c1ccc(Oc2ccc(S(=O)(=O)N(CC(=O)O)CC(=O)NO)cc2)cc1 [Example 24, N-{[(Hydroxyamino)carbonyl]methyl}-N-({4-[4-(methylsulfonyl)phenoxy]phenyl}sulfonyl)-glycine] | 128 | > 5000 | > 10000 | –
CS(=O)(=O)c1ccc(Oc2ccc(S(=O)(=O)N(CCC(=O)O)C3(C(=O)NO)CCCC3)cc2)cc1 [Example 27, N-{1-[(Hydroxyamino)carbonyl]cyclopentyl}-N-({4-[4-(methylsulfonyl)phenoxy]phenyl}sulfonyl)-β-alanine] | 89.4 | > 5000 | > 10000 | –
CCOC(=O)CCN(C1(C(=O)NO)CCOCC1)S(=O)(=O)c1ccc(Oc2ccc(S(C)(=O)=O)cc2)cc1 [Example 31, Ethyl N-{4-[(hydroxyamino)carbonyl]tetrahydro-2H-pyran-4-yl}-N-({4-[4-(methylsulfonyl)phenoxy]phenyl}sulfonyl)-β-alaninate] | 59 | > 5000 | 4900 | –
CS(=O)(=O)c1ccc(Oc2ccc(S(=O)(=O)N(CCC(=O)O)CC(=O)NO)cc2)cc1 [Example 36, N-[2-(Hydroxyamino)-2-oxoethyl]-N-({4-[4-(methylsulfonyl)phenoxy]phenyl}sulfonyl)-β-alanine] | 37.1 | 938 | > 100 | –
COCCCN(CC(=O)NO)S(=O)(=O)c1ccc(Oc2ccc(S(C)(=O)=O)cc2)cc1 [Example 43, N^1-Hydroxy-N^2-(3-methoxypropyl)-N^2-({4-[4-(methylsulfonyl)phenoxy]phenyl}sulfonyl)glycinamide] | 8.5 | 82 | 600 | –
COCCN(CC(=O)NO)S(=O)(=O)c1ccc(Oc2ccc(S(C)(=O)=O)cc2)cc1 [Example 44, N^1-Hydroxy-N^2-(2-methoxyethyl)-N^2-({4-[4-(methylsulfonyl)phenoxy]phenyl}sulfonyl)glycinamide] | 2.7 | 343 | > 10000 | –
CCOC(=O)CN(C1(C(=O)NO)CCC1)S(=O)(=O)c1ccc(Oc2ccc(S(C)(=O)=O)cc2)cc1 [Example 46, Ethyl N-{1-[(hydroxyamino)carbonyl]cyclobutyl}-N-({4-[4-(methylsulfonyl)phenoxy]phenyl}sulfonyl)glycinate] | 11.6 | > 1500 | > 100 | –
CS(=O)(=O)c1ccc(Oc2ccc(S(=O)(=O)NC3(C(=O)NO)CCC3)cc2)cc1 [Example 48, N-Hydroxy-1-[({4-[4-(methylsulfonyl)phenoxy]phenyl}sulfonyl)amino]cyclobutanecarboxamide] | 35.9 | > 1500 | > 100 | –
CS(=O)(=O)c1ccc(Oc2ccc(CC3Sc4ccc(C(=O)O)cc4N(CC(=O)NO)C3=O)cc2)cc1 (stereo not shown) [Example 50] | 38 | > 1000 | 244 | –
COc1ccc(Oc2ccc(CC3Sc4ccc(C(=O)O)cc4N(CC(=O)NO)C3=O)cc2)cc1 (stereo not shown) [compound 1, reference compound] | 88 | 87.3 | > 100 | –
